Results from patent US20020051978A1, “Methods and compositions for the identification, assessment, prevention and therapy of human cancers” (priority 2000, published 2002).
Where “and” joins values, the source holds several entries; their conditions need not be identical. Equal entries are not always repeated. Where two headings read alike, the source gives them in different places.

Tests used:
[1] = test system: 60 cancer cell lines (NCI 60 cancer cell line series); assay: NCI-DTP in vitro cancer screen, sulforhodamine B (SRB) growth inhibition, 48 hour exposure; format: cell-based, human
Summary of the method: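 Sixty NCI-DTP cancer lines plated at line-specific densities, dosed on day 1 in duplicate with 5 concentrations at ten-fold intervals. After 48 h exposure, cell mass read by SRB staining; GI50 (50% growth inhibition) taken from dose-response curves and expressed as -log GI50.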

[2] = test system: 60 cancer cell lines (NCI 60 cancer cell line series); conditions: cited from earlier work

## Bleomycin
[1]; Breast MCF7(I) (CL5001)
  classification of cell line as Low(1), Medium(2) or High(3) sensitivity to compound: 2
[1]; Breast MCF7/ADRr (CL5002)
  classification of cell line as Low(1), Medium(2) or High(3) sensitivity to compound: 2
[1]; Breast MDA-MB-231 CL5005
  classification of cell line as Low(1), Medium(2) or High(3) sensitivity to compound: 1
[1]; Breast MDA-MB-435 (CL5011)
  classification of cell line as Low(1), Medium(2) or High(3) sensitivity to compound: 1
[1]; Breast MDA-N CL5012
  classification of cell line as Low(1), Medium(2) or High(3) sensitivity to compound: 1
[1]; Breast T-47D (CL5014)
  classification of cell line as Low(1), Medium(2) or High(3) sensitivity to compound: 2
[1]; CNS SF-268 CL12014
  classification of cell line as Low(1), Medium(2) or High(3) sensitivity to compound: 2
[1]; CNS SF-295 CL12015
  classification of cell line as Low(1), Medium(2) or High(3) sensitivity to compound: 3
[1]; CNS SF-539 CL12016
  classification of cell line as Low(1), Medium(2) or High(3) sensitivity to compound: 3
[1]; CNS SNB-19 (CL12002)
  classification of cell line as Low(1), Medium(2) or High(3) sensitivity to compound: 2
[1]; CNS SNB-75(I) CL12005
  classification of cell line as Low(1), Medium(2) or High(3) sensitivity to compound: 2
[1]; CNS U251(I) CL12009
  classification of cell line as Low(1), Medium(2) or High(3) sensitivity to compound: 2
[1]; Colon COLO-250 CL4010
  classification of cell line as Low(1), Medium(2) or High(3) sensitivity to compound: 2
[1]; Colon HCT-15 CL4015
  classification of cell line as Low(1), Medium(2) or High(3) sensitivity to compound: 2
[1]; Colon HCT-116 (CL4003)
  classification of cell line as Low(1), Medium(2) or High(3) sensitivity to compound: 2
[1]; Colon HT29(I) CL4001
  classification of cell line as Low(1), Medium(2) or High(3) sensitivity to compound: 1
[1]; Colon KM12 (CL4017)
  classification of cell line as Low(1), Medium(2) or High(3) sensitivity to compound: 1
[1]; Colon SW-620 (CL4009)
  classification of cell line as Low(1), Medium(2) or High(3) sensitivity to compound: 2
[1]; Leukemia CCRF-CEM(I) (CL7003)
  classification of cell line as Low(1), Medium(2) or High(3) sensitivity to compound: 2
[1]; Leukemia HL-60(I) (CL7008)
  classification of cell line as Low(1), Medium(2) or High(3) sensitivity to compound: 2
[1]; Leukemia K562(I) CL7005
  classification of cell line as Low(1), Medium(2) or High(3) sensitivity to compound: 2
[1]; Leukemia MOLT-4 (CL7006)
  classification of cell line as Low(1), Medium(2) or High(3) sensitivity to compound: 2
[1]; Leukemia SR CL7019
  classification of cell line as Low(1), Medium(2) or High(3) sensitivity to compound: 3
[1]; Melanoma LOX IMVI CL10001
  classification of cell line as Low(1), Medium(2) or High(3) sensitivity to compound: 3
[1]; Melanoma M14 (CL10014)
  classification of cell line as Low(1), Medium(2) or High(3) sensitivity to compound: 2
[1]; Melanoma MALME-3M CL10002
  classification of cell line as Low(1), Medium(2) or High(3) sensitivity to compound: 2
[1]; cell line NSCLC NCI-H23(I), CL1001
  sensitivity class NSCLC NCI-H23(I) CL1001: 2
[1]; cell line NSCLC NCI-H332M, CL1017
  sensitivity class NSCLC NCI-H332M CL1017: 1
[1]; cell line NSCLC NCI-H522, CL1003
  sensitivity class NSCLC NCI-H522 CL1003: 2
[1]; cell line Ovarian IGROV1, CL6010
  sensitivity class Ovarian IGROV1 CL6010: 2
[1]; cell line Ovarian OVCAR-3, CL6001
  sensitivity class Ovarian OVCAR-3 CL6001: 2
[1]; cell line Ovarian OVCAR-4, CL6002
  sensitivity class Ovarian OVCAR-4 CL6002: 2
[1]; cell line Ovarian OVCAR-5, CL6003
  sensitivity class Ovarian OVCAR-5 CL6003: 2
[1]; cell line Ovarian OVCAR-8, CL6005
  sensitivity class Ovarian OVCAR-8 CL6005: 2
[1]; cell line Ovarian SK-OV-3, CL6011
  sensitivity class Ovarian SK-OV-3 CL6011: 2
[1]; cell line Prostate DU-145, CL11003
  sensitivity class Prostate DU-145 CL11003: 2
[1]; cell line Prostate PC-3(I), CL11001
  sensitivity class Prostate PC-3(I) CL11001: 2
[1]; cell line Renal 786-O, CL9018
  sensitivity class Renal 786-O CL9018: 2
[1]; cell line Renal A498, CL9013
  sensitivity class Renal A498 CL9013: 2
[1]; cell line Renal ACHN, CL9023
  sensitivity class Renal ACHN CL9023: 3
[1]; cell line Renal SN12C, CL9008
  sensitivity class Renal SN12C CL9008: 2
[1]; cell line Renal TK10, CL9024
  sensitivity class Renal TK10 CL9024: 1
[1]; number of the 60 cell lines classified Low (1) sensitivity
  1 # of Low: 12
[2]; Breast BT-549 (CL5013)
  -Log (GI50): 5.0 and 5.1
[2]; Breast MCF7(I) (CL5001)
  -Log (GI50): 5.7 and 5.5
[2]; Breast MCF7/ADRr (CL5002)
  -Log (GI50): 6.1 and 6.0
[2]; Breast MDA-MB-435 (CL5011)
  -Log (GI50): 4.7 and 4.6
[2]; Breast MDA-N CL5012
  -Log (GI50): 4.8 and 4.6
[2]; Breast T-47D (CL5014)
  -Log (GI50): 5.3 and 5.2
[2]; CNS SF-295 CL12015
  -Log (GI50): 7.0 and 7.2
[2]; CNS SF-539 CL12016
  -Log (GI50): 7.7
[2]; CNS SNB-19 (CL12002)
  -Log (GI50): 5.4 and 5.5
[2]; Colon COLO-250 CL4010
  -Log (GI50): 5.2 and 5.3
[2]; Colon HCC-2998 (CL4002)
  -Log (GI50): 5.0 and 4.7
[2]; Colon HCT-116 (CL4003)
  -Log (GI50): 6.4 and 6.2
[2]; Colon HT29(I) CL4001
  -Log (GI50): 4.9 and 4.8
[2]; Colon KM12 (CL4017)
  -Log (GI50): 4.9 and 4.8
[2]; Colon SW-620 (CL4009)
  -Log (GI50): 5.1 and 5.0
[2]; Leukemia HL-60(I) (CL7008)
  -Log (GI50): 5.2 and 5.3
[2]; Leukemia MOLT-4 (CL7006)
  -Log (GI50): 5.9 and 6.2
[2]; Leukemia RPMI-8226(I) (CL7010)
  -Log (GI50): 4.8 and 4.9
[2]; Melanoma LOX IMVI CL10001
  -Log (GI50): 6.8
[2]; Melanoma M14 (CL10014)
  -Log (GI50): 5.8 and 5.5
[2]; NSCLC NCI-H23(I) CL1001
  -Log (GI50): 6.2 and 6.3
[2]; NSCLC NCI-H332M CL1017
  -Log (GI50): 4.8 and 4.5
[2]; Ovarian OVCAR-3 CL6001
  -Log (GI50): 5.3
[2]; Ovarian OVCAR-8 CL6005
  -Log (GI50): 5.5 and 5.8
[2]; Ovarian SK-OV-3 CL6011
  -Log (GI50): 5.2 and 5.4
[2]; Prostate DU-145 CL11003
  -Log (GI50): 5.4 and 5.5
[2]; Prostate PC-3(I) CL11001
  -Log (GI50): 5.1 and 5.3
[2]; Renal ACHN CL9023
  -Log (GI50): 8.1 and 7.9
[2]; Renal RXF-393 CL9016
  -Log (GI50): 6.7 and 6.6
[2]; Renal SN12C CL9008
  -Log (GI50): 6.0 and 5.9
[2]; Renal TK10 CL9024
  -Log (GI50): 5.0 and 4.7
